{"source": "patent US10550130B2", "about": "“Benzo-thiazolo-imidazole compounds and uses thereof” (KING SAUD UNIVERSITY, priority 2015, dated 2020)", "key": {"Numb": {"tested_on": "Numb", "test": "Immunofluorescence of Numb in MDA-MB-231 breast cancer cells", "format": "cell-based", "conditions": "MDA-MB-231 cells; 0.01, 0.1, 1 or 10 μM", "method": "(§1) MDA-MB-231 breast cancer cells were treated either with vehicle (control) or with 0.01 μM, 0.1 μM, 1 μM or 10 μM final concentration of doxorubicin, taxotere or KSA-101696. Then, the cells were cytospun to glass slides by centrifugation at 800 rpm for 3 min. Slides were then air-dried overnight and 4% formaldehyde fixed for 10 min. For staining, the cell membrane was permeabilized with 0.5% triton-X (Sigma) followed by overnight incubation with primary antibodies (anti-Numb, Abcam) and (anti-intracellular Notch-1, Cell Signalling) at 1:100. Cells were washed and stained with AlexaFluor goat anti-rabbit IgG 488 (Invitrogenat) 1:400 for 30 minutes. 300 nM DAPI (Invitrogen, Carlsbad, Calif., USA) was added for 10 minutes to counterstain the nuclei. Slides were mounted and immunofluorescence was visualized using BD Pathway 855 microscope.\n(§2) Numb exerts its functional role on cell fate decisions by antagonizing Notch signaling activities. The molecular mechanisms underlying this relationship appear to rely on the ubiquitination of the membrane bound Notch-1 receptor and the subsequent degradation of its NICD (Notch intracellular domain) following receptor activation."}, "MDA-MB-468 tumors": {"tested_on": "MDA-MB-468 tumors", "test": "Antitumor activity in mice", "format": "in vivo, Nude mice", "method": "(§3) Nude mice (Jackson Laboratories, Bar Harbor, Me., USA) were injected with 4×10^6 cells of MDA-MB-468 in the mammary pad and tumor size was measured weekly using a caliper. When the tumor reached approximately 100 mm^3 diameter the mice were divided into a control group and a group treated with KSA-101696 200 mg/kg via intraperitoneal injection (three cycles every four days). Apparent toxicity as determined by body weight loss is recorded by measuring total body weight. Breeding, care and sacrifice of the animals were carried out in accordance with the protocols approved by the Animal Care and Use Committee of the King Faisal Specialist Hospital and Research Centre.\n(§4) Because of the observed selective cytotoxic effect of compound KSA-101696 against cancer cells and the tolerance of normal cells and normal stem cells in vitro, a high dose of compound KSA-101696 (200 mg/kg) was used on mice."}, "[1]": {"test": "Apparent toxicity (body weight, general signs) in tumor-bearing mice", "format": "in vivo", "conditions": "200 mg/kg intraperitoneal, three doses", "method": "as §3, §4"}, "[2]": {"tested_on": "ALDH-positive SKBR3 cells", "test": "Aldefluor assay (ALDH-positive cells)", "format": "cell-based", "method": "SKBr3 cells with or without treatment harvested, washed and incubated in aldefluor assay buffer containing an ALDH substrate (BAAA). For negative control, half of the cells of each sample was removed to another FACS tube and incubated under identical condition with DEAB (diethylaminobenzaldehyde), a specific inhibitor of ALDH enzyme.\nBecause SKBR3 cells include, among various cell lines tested, a particularly high percentage of ALDH-positive cells, SKBR3 cells were selected to evaluate whether KSA-101696 inhibits ALDH-positive cells in vitro.\nAfter two days of treatment with 2.5 μM of KSA-101696, a more that 50% reduction in ALDH-positive cell percentage was observed (FIG. 5A)."}, "[3]": {"tested_on": "normal cells MCF-10 A, HSFN1 (human foreskin cells) and BM4 (bone marrow derived mesenchymal stem cells)", "test": "Annexin V binding by flow cytometry (apoptosis) in normal cells", "format": "cell-based", "conditions": "20 μM, 48 h", "method": "It is known that loss of phospholipid asymmetry of the plasma membrane is an early event of apoptosis. The annexin V binds to negatively charged phospholipids, like phosphatidylserine. During apoptosis, the cells react to annexin V once chromatin condenses but before the plasma membrane loses its ability to exclude propidium iodide (PI).\nAnnexin-V staining was performed by using Vybrant Apoptosis Assay Kit #2 (Molecular Probes) following the manufacturer's recommendations. Annexin-V stained cells were analyzed by flow cytometry, measuring the fluorescence emission between 515 nm to 545 nm.\nTo evaluate the selective-apoptotic effect of the compound in cancer cells but not normal cells, the cancer cell lines SKBR3, MDA-MB-468, and normal cells MCF-10 A, HSFN1 (human foreskin cells) and BM4 (bone marrow derived mesenchymal stem cells) were used. […] Upon treatment of cells with 20 μM for 48 h, cells were stained with Annexin-V and PI and binding of Annexin-V and PI to the cells was determined by flow cytometry."}, "[4]": {"tested_on": "colony forming SKBR3 cells", "test": "2-D colony formation assay", "format": "cell-based", "conditions": "5000 viable cells from the ALDEFLUOR assay cells; 60 mm dish", "method": "Cells were treated with different concentration of the compound or control medium containing 0.1% DMSO for 72 h. Cells were harvested and counted by using trypan blue to exclude the dead cells. A 5000 viable cells of treated and control cells were suspended in 3 ml DMEM supplemented with 10% FBS (Cambrex Bio Science) and seeded in a 60 mm tissue culture dish (Falcon, BD). The next day, a new fresh media was added and the cells were allowed to grow forming colonies for 14 d. The cells were then stained with methylene blue (Sigma-Aldrich, St. Louis, Mo., USA) and colonies containing more than 20 cells were counted.\nThus, from the same cells as used in the ALDEFLUOR assay, 5000 viable cells were seeded in a 60 mm tissue culture dish."}, "HT-29 colon cancer cells": {"tested_on": "HT-29 colon cancer cells", "test": "CD133 expression by flow cytometry", "format": "cell-based", "conditions": "10 μM, 48 h", "method": "In a further experiment, HT-29 colon cancer cells were cultured in 6 well plates and treated by KSA-101696 (10 μM) or vehicle for 48 h. Then, cells were collected and stained with a CD133 antibody and analyzed by flow cytometry."}, "intracellular Notch-1": {"tested_on": "intracellular Notch-1", "test": "Immunofluorescence of intracellular Notch-1 in MDA-MB-231 breast cancer cells", "format": "cell-based", "conditions": "MDA-MB-231 cells; FIGS. 1B and 1C", "method": "as §1, §2"}, "[5]": {"tested_on": "THP-1 acute monocytic leukemia cells", "test": "CD34 positive cell population by flow cytometry", "format": "cell-based", "conditions": "48 h", "method": "THP-1 leukemic cells were cultured in RPMI medium in […] flask and treated with KSA-101696 for 48 h. Cells were then washed and stained with anti-CD34-FITC (BD biosciences) for 30 min at room temperature. The hematopoietic stem cell population (CD34 positive cells) was analyzed by flow cytometry to evaluate the effect of KAS-101696 on hematopoietic stem cells of leukemic origin."}}}
{"molecule": "COc1ccc(-c2csc3nc4ccccc4n23)cc1", "note": "[KSA-101696, 3-(4-methoxyphenyl)benzo[4,5]imidazo[2,1-b]thiazole]", "values": [{"measurement": "Numb expression (immunofluorescence microscopy)", "setting": "Numb", "value": "induced Numb"}, {"measurement": "reduction (shrinking) of tumor volume", "setting": "MDA-MB-468 tumors; 200 mg/kg intraperitoneal, three doses, mice bearing MDA-MB-468 tumors", "value": 70, "unit": "%"}, {"measurement": "ED50", "setting": "MDA-MB-468 tumors; Mus musculus, MDA-MB-468, ip, intraperitoneal, read-out: ED50 (dose that shrinks the tumor volume by 50% at the end of treatment)", "value": 50, "unit": "mg/kg"}, {"measurement": "signs of general toxicity", "setting": "[1]", "value": "no convulsions, CNS stimulation, diarrhea, increased urination, miosis or mydriasis"}, {"measurement": "weight loss", "setting": "[1]", "value": "no measurable weight loss"}, {"measurement": "reduction in ALDH-positive cell percentage", "setting": "[2]; 2.5 μM, two days", "value": "> 50", "unit": "%"}, {"measurement": "IC50", "setting": "[2]; Homo sapiens, SK-BR-3", "value": "~2000", "unit": "nM"}, {"measurement": "apoptosis (Annexin-V and PI) in normal cells", "setting": "[3]", "value": "little apoptotic effect"}, {"measurement": "inhibition of colony forming cells", "setting": "[4]", "value": "showed the same activity in inhibition of colony forming cells"}, {"measurement": "expression of colon cancer stem cell marker CD133", "setting": "HT-29 colon cancer cells", "value": "inhibition in the expression of the colon cancer stem cell marker CD133"}, {"measurement": "concentration inhibiting intracellular Notch-1 by activating Numb expression", "setting": "intracellular Notch-1", "value": 0.625, "unit": "µM"}, {"measurement": "CD34+ cells percentage", "setting": "[5]", "value": "reduction of CD34^+ cells percentage"}]}
